Data from US10899790B2, “Method for modifying T cell population” (OSAKA UNIVERSITY, priority 2016, dated 2021).
“Also recorded” adds a separate entry of the source.

Experiments:
[1] = molecular target: T1, Retinol Dehydrogenase 10 (RDH10) (Homo sapiens, UniProt Q8IZV5); test: Inhibition of RDH10 enzyme activity (microsomal fraction of RDH10-expressed 293T, all-trans retinol to all-trans retinal, HPLC); assay type: biochemical; conditions: final concentration of 20 μM; relative to DMSO control (FIG. 1)
T1 construct: expressed in transfected cells; host or cells: 293T (microsomal fraction)
T1 sequence (Q8IZV5 1-341): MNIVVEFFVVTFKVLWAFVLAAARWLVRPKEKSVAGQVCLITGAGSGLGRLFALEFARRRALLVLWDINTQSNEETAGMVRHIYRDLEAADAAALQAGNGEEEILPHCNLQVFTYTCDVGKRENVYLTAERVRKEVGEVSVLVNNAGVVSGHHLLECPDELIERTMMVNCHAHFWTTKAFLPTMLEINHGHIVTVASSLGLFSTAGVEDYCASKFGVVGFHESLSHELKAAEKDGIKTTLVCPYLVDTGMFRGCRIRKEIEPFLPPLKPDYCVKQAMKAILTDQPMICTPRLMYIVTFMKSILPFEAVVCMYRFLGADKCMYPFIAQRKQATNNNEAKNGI
Procedure: All-trans retinol, BSA, and NAD (nicotinamide adenine dinucleotide) as a coenzyme were added to a buffer for reaction (90 mM potassium phosphate buffer, pH7.4, 40 mM KCl) so as to have final concentrations of 10 μM, 10 μM, and 1 mM respectively. This mixture was taken in siliconized tubes by 200 μl for each, the microsomal fractions separated from 293T and RDH10-expressed 293T were added to separate tubes by 10 μl for each, and the mixtures were allowed to react at 37° C. for 15 minutes. After 200 μl of methanol was added to the reaction mixtures to stop the reaction, retinoid was extracted using hexane and concentrated. The concentrated retinoid was dissolved in 150 μl of acetonitrile, separated by HPLC, and subjected to the detection of ultraviolet light absorption at a wavelength of 350 nm, whereby the substrate (all-trans retinol) and the product (all-trans retinal) were detected. In addition, standard samples (all-trans retinol and all-trans retinal) were separated by HPLC and the retention times of the respective standard samples were determined in advance. The solvent for HPLC was acetonitrile: 50 mM ammonium acetate=75:25. As the separation column, Syhergi 4 μm Hydro-RP 80A (manufactured by Phenomenex) was used. In addition, the flow rate was 2.0 ml/min. The RDH10 enzyme activity was calculated by reading the amount of product per fixed time from the chart of HPLC.
All-trans retinol, BSA, and NAD (nicotinamide adenine dinucleotide) as a coenzyme were added to a buffer for reaction (90 mM potassium phosphate buffer, pH7.4, 40 mM KCl) so as to have final concentrations of 10 μM, 10 μM, and 1 mM respectively. This mixture was taken in siliconized tubes by 200 μl for each, the microsomal fraction separated from RDH10-expressed 293T was added to separate tubes by 10 μl for each. The RDH10 inhibitor dissolved in DMSO was added to each tube so as to have a final concentration of 20 μM, and the same amount of DMSO was added to the control tube. The mixture was allowed to react at 37° C. for 15 to 30 minutes, 200 μl of methanol was added to the reaction mixtures, and then retinoid was extracted using hexane and concentrated. The concentrated retinoid was dissolved in 150 μl of acetonitrile, separated by HPLC, and subjected to the detection of ultraviolet light absorption at a wavelength of 350 nm, whereby the substrate (all-trans retinol) and the product (all-trans retinal) were detected. In addition, standard samples (all-trans retinol and all-trans retinal) were separated by HPLC and the retention times of the respective standard samples were determined in advance. The solvent for HPLC was acetonitrile: 50 mM ammonium acetate=75:25. As the separation column, Syhergi 4 μm Hydro-RP 80A (manufactured by Phenomenex) was used. The flow rate was 2.0 ml/min.
The enzyme activity was determined by the waveform area of the product (all-trans retinal) with respective to the waveform area of the non-reacted substrate (all-trans retinol), and the relative value with respect to the enzyme activity in the control is illustrated in FIG. 1. The error bars indicate SD (standard deviation).

[2] = tested on: mouse cancer cell line EG7 expressing OVA; test: Effect in vivo: EG7 tumor-bearing B6 mice with transferred OT-1 cells; design: species or system C57BL/6J mouse; conditions: for frequency of CD45.1+OT-1 cells (OVA specific CD8+ cells) in peripheral blood / expression of CD62L and CD127 in CD45.1+OT-1 cells: 100 μg/mouse tail vein; for frequency of CD45.1+OT-1 cells (OVA specific CD8+ cells) in peripheral blood: 20th day after tumor transplantation (FIG. 5); for expression of CD62L and CD127 in CD45.1+OT-1 cells: 20th day, flow cytometry (FIG. 6); for proliferation of tumor in vivo / tumor volume: 100 μg/mouse through the tail vein, 3 times every other day; for tumor volume: 21st day after transplantation (FIG. 4)
Text: A mouse cancer cell line EG7 (2×10^6) expressing OVA (chicken ovalbumin) was subcutaneously injected into C57BL/6J mouse (B6 mouse) to form a tumor. Five days later, the mouse in which a tumor was formed was irradiated with radiation at 3 Gy, then T cell-receptive OTCD8^+T cells (OT-1 cells) specific for OVA antigen were isolated from CD45.1 positive OT-I transgenic mouse, and this was transferred into the mouse by 2×10^5 through the tail vein. A total of 3 times every other day from the next day, RDH10 inhibitors (Compound No. 1 (RDHI-012) and Compound No. 2 (RDHI-013)) were administered to the mouse at 100 μg/mouse for each through the tail vein. The RDH10 inhibitors were administered to the mouse by being previously stocked in DMSO at 100 μg/50 μl and adjusted to have a total volume of 200 μl by the addition of 150 μl of PBS.
In the experiment, tumor volumes were measured over time. The frequency of OT-1 cells (OVA specific CD8^+T cells) in peripheral blood on the 20th day was measured. Furthermore, the expression intensity of cell surface antigen molecules (CD62L, CD127), which were markers of memory T cells, was analyzed.
The time course in the mean value of tumor volume after tumor transplantation is illustrated in FIG. 4. The error bars indicate the standard error. The tumor volume was determined by major axis×minor axis×height/2.
On the 20th day after the tumor transplantation, the frequency of transferred OT-I cells contained in peripheral blood was analyzed by flow cytometry. OT-I cells were CD45.1 positive and thus were clearly distinguishable from the host B6 mouse (CD45.2 positive)-derived T cells. The representative results are illustrated in FIG. 5.
The expression intensities of CD62L and CD127 in OT-I cells illustrated in FIG. 5 were analyzed by flow cytometry. The mean value and standard error of each expression intensity are illustrated in FIG. 6.

Structure (SMILES)	RDH10 enzyme activity inhibitory action [1]	frequency of CD45.1+OT-1 cells (OVA specific CD8+ cells) in peripheral blood [2]	expression of CD62L and CD127 in CD45.1+OT-1 cells [2]	proliferation of tumor in vivo [2]	tumor volume [2]
COC(=O)[C@@]1(C)CC[C@]2(C)CC[C@]3(C)C(=CC(=O)[C@@H]4[C@@]5(C)CCC(N)C(C)(C)[C@@H]5CC[C@]43C)[C@H]2C1 (stereo partly drawn) [Compound No. 1, (2S,4aS,6aS,6bR,8aR,12aS,12bR,14bS)-methyl 10-amino-2,4a,6a,6b,9,9,12a-heptamethyl-13-oxo-1,2,3,4,4a,5,6,6a,6b,7,8,8a,9,10,11,12,12a,12b,13,14b-icosahydropicene-2-carboxylate]	relatively potent; also recorded: potent RDH10 enzyme activity inhibitory action	amplify CD45.1^+OT-1 cells	accelerate the expression of CD62L and CD127	suppress the proliferation of tumor in vivo	decreased to one several tenths to one several hundredths
COC(=O)[C@@]1(C)CC[C@]2(C)CC[C@]3(C)C(=CC(=O)[C@@H]4[C@@]5(C)CCC(N)C(C)(C)[C@@H]5CC[C@]43C)[C@@H]2C1 (stereo partly drawn) [Compound No. 2, (2S,4aS,6aS,6bR,8aR,12aS,12bR,14bR)-methyl 10-amino-2,4a,6a,6b,9,9,12a-heptamethyl-13-oxo-1,2,3,4,4a,5,6,6a,6b,7,8,8a,9,10,11,12,12a,12b,13,14b-icosahydropicene-2-carboxylate]	relatively potent; also recorded: potent RDH10 enzyme activity inhibitory action	amplify CD45.1^+OT-1 cells	accelerate the expression of CD62L and CD127	suppress the proliferation of tumor in vivo	decreased to one several tenths to one several hundredths
